Values after ≈ are worked out from the molar mass of the structure shown. Numbered stars: 1 amine (or outer) side, 2 acyl side, 3 side chain; on linkers, the order of the positions; unused ones are H or OH. Bridge positions count the residues as written; N and C are the ends. Square brackets hold non-standard residues; d marks the D form. Peptide text beside a SMILES is read from it. NMehTyr = CN[C@@H](CCc1ccc(O)cc1)C(=O)O; hTyr = N[C@@H](CCc1ccc(O)cc1)C(=O)O; NMeA = CN[C@@H](C)C(=O)O; CO = O=C([*:1])[*:2]

From ChEMBL document CHEMBL1132037, “Anabaenopeptins G and H, potent carboxypeptidase A inhibitors from the cyanobacterium Oscillatoria agardhii (NIES-595)” (Bioorg Med Chem Lett, 1999) come the findings set out here.

The first assay addresses Carboxypeptidase A1 (Bos taurus) (UniProt P00730). The assay can be described thus: Ability to inhibit Carboxypeptidase A from bovine pancreas at a concentration of 50 ug/mL; No Activity.
In general, IC50 refers to the concentration needed to halve the response being measured. Higher therefore signals weaker potency. With `CC(C)[C@@H]1NC(=O)[C@H](NC(=O)N[C@@H](CCCNC(=N)N)C(=O)O)CCCCNC(=O)[C@H](Cc2ccccc2)NC(=O)[C@H](C)N(C)C(=O)[C@H](CCc2ccc(O)cc2)NC1=O` [ANABAENOPEPTIN B] ({Arg-CO}-[dK]V[hTyr][NMeA]F; lactam 1-C), the IC50 entry is given as “Not Active”. As for `COc1ccc(CC[C@@H]2NC(=O)[C@H](C(C)C)NC(=O)[C@H](NC(=O)N[C@@H](CCCN=C(N)N)C(=O)O)CCCCNC(=O)[C@H](Cc3ccccc3)NC(=O)[C@H](C)N(C)C2=O)cc1`, the IC50 entry is “Not Active”.

Regarding `CC[C@H](C)[C@@H]1NC(=O)[C@H](NC(=O)N[C@@H](CCCNC(=N)N)C(=O)O)CCCCNC(=O)[C@H](Cc2ccccc2)NC(=O)[C@H](C)N(C)C(=O)[C@H](CCc2ccc(O)cc2)NC1=O` [ANABAENOPEPTIN F] ({Arg-CO}-[dK]I[hTyr][NMeA]F; lactam 1-C), the IC50 entry is reported as “Not Active”.

For a further assay the target is unchanged. The assay can be described thus: Ability to inhibit Carboxypeptidase A from bovine pancreas.
As for `CC[C@H](C)[C@@H]1NC(=O)[C@H](NC(=O)N[C@@H](CCCNC(=N)N)C(=O)O)CCCCNC(=O)[C@H]([C@@H](C)CC)NC(=O)[C@H](CCc2ccc(O)cc2)N(C)C(=O)[C@H](CCc2ccc(O)cc2)NC1=O` [ANABAENOPEPTIN H] ({Arg-CO}-[dK]I[hTyr][NMehTyr]I; lactam 1-C), the half-maximal inhibitory concentration (IC50) was 3.4 µg/mL (≈ 3.68 µM). As for `CC[C@H](C)[C@@H]1NC(=O)[C@H](NC(=O)NC(Cc2ccc(O)cc2)C(=O)O)CCCCNC(=O)[C@H]([C@@H](C)CC)NC(=O)[C@H](CCc2ccc(O)cc2)N(C)C(=O)[C@H](CCc2ccc(O)cc2)NC1=O` (stereo partly specified), the IC50 is 0.0018 µg/mL (≈ 0.00194 µM). Same read-out and setting: then `CC[C@H](C)[C@H](NC(=O)N[C@@H]1CCCCNC(=O)[C@H]([C@@H](C)CC)NC(=O)[C@H](CCc2ccc(O)cc2)N(C)C(=O)[C@H](CCc2ccc(O)cc2)NC(=O)[C@H](C(C)C)NC1=O)C(=O)O` [ANABAENOPEPTIN T], with 2 µg/mL (≈ 2.31 µM).
